We go through three compounds from patent US20100239685A1, “COMPOUND FOR TREATMENT OR PREVENTION OF PROSTATE-RELATED DISEASES AND PHARMACEUTICAL COMPOSITION OF COLON DELIVERY SYSTEM CONTAINING THE SAME” (priority 2006, published 2010).

Molecules are shown by their SMILES. Several values for one entry are separate records, joined by “and”; a condition that tells them apart may be missing. Identical values can stand only once.

Data set [1] can be described thus: Determination of partition coefficients (octanol / phosphate buffer pH 7.4). The class given is physicochemical. The settings on record: sample 200 μg/mL; octanol/water; replicates 1-3. Here is the method: Octanol and phosphate buffer (pH 7.4) were saturated with a counter-solvent for 24 hours or more. A given amount of a naphthoquinone-based compound (compound 1 of Table 1 below) was dissolved in the thus-saturated octanol, mixed with triple-distilled water and stirred using a magnetic stirrer at 200 rpm for 13 hours or more. Samples were taken, filtered through a 0.45 μm RC Membrane filter and diluted with methanol. The diluted sample materials were analyzed by HPLC. A partition coefficient versus an amount of the compound 1 was determined.

For data set [2] the following is noted: cited from earlier work.
Data set [3] is described as follows: Intestinal absorption, single-pass intestinal perfusion. It counts as in vivo, rats. The protocol: In order to determine intestinal absorption (%) of a naphthoquinone-based compound, a single-pass intestinal perfusion technique was carried out in internal organs of rats, including jejunum, ileum and large intestine. The steady-state intestinal effective permeability (Peff) can be expressed according to the following equation. Peff=[−Qin·ln (Cout/Cin)]/A Peff: Steady-state intestinal effective permeability (cm/s) Qin: Perfusion flow rate (0.4 mL/min) Cin, Cout: Inlet and fluid-transport-corrected outlet solution concentrations A: Mass transfer surface area within intestinal segment (2πrL), r, L: Radius and length of intestinal segment The radius (r) and length (L) of the jejunum, ileum and large intestine used in experiments are as follows: (r: jejunum, 0.21 cm; ileum, 0.22 cm; large intestine, 0.23 cm, and L: 10 cm) The steady-state was confirmed by the ratio of the outlet to inlet concentrations (Cout/Cin) versus time. The steady-state is established when the Cout/Cin ratio of the naphthoquinone-based compound is maintained at a constant value (n=3, error bars with respect to S.D.). Residual amounts of the naphthoquinone-based compound in the above three intestinal organs were measured at different time points. The outlet steady-state concentration of the compound under perfusion was calculated. The results thus obtained are given in Table 4 and FIG. 2, respectively. The effective permeability was measured at 4 points of each intestinal tissue.

As to `CC1(C)CCC2=C(O1)c1ccccc1C(=O)C2=O` [Compound 1], in data set [1], the “Partition Coefficient” value was 2.40 and 2.20.

Regarding `C[C@H]1COC2=C1C(=O)C(=O)c1c2ccc2c1CCCC2(C)C` [cryptotanshinone], the “absorption rate via oral administration” value in data set [2] is listed as 2.05%.

Take `CC1(C)CCC2=C(O1)c1ccccc1C(=O)C2=O` [naphthoquinone-based compound]: the Peff in data set [3] (Duodenum) is listed as 0.79 ± 0.33 × 10^−5 (cm/s); in data set [3] (Ileum), 5.15 ± 1.49 × 10^−5 (cm/s); in data set [3] (Jejunum), 2.37 ± 1.17 × 10^−5 (cm/s); in data set [3] (Large intestine) it was 7.82 ± 0.93 × 10^−5 (cm/s).
